Read-outs that look alike come from different tables or passages of the source.
Key:
[1] = biological target: biotinylated human IL-17A / AF647-labeled human IL-17RA (Homo sapiens, UniProt Q16552); assay: Human IL-17A×IL-17RA TR-FRET assay; format: binding
How it was run: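 Compounds tested in duplicate at each concentration; neutral controls contain all components with DMSO in place of compound.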

[2] = biological target: recombinant human IL-17AA (Homo sapiens, UniProt Q16552); assay: IL-6 release from NHDF cells, IL-17AA plus TNF-α stimulation; format: cell-based; settings: 24 hours, IL-6 by ELISA
Sequence of recombinant human IL-17AA (Q16552 24-155): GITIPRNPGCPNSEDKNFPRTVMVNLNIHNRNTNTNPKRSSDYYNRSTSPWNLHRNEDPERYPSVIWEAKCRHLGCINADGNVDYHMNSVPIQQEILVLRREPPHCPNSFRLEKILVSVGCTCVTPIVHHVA
How it was run: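 IL-17-specific IL-6 release from NHDF cells adhered overnight; compounds pre-incubated 30 min at room temperature with human IL-17AA plus TNF-α, then 24 h on cells at 37° C. Final DMSO 0.1% or plasma 20%; IL-6 by ELISA (450 nm). TNF-α-only IL-6 subtracted before IC50 fit.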

[3] = TR-FRET, biotinylated human IL-17A 5 nM, AF647-labeled human IL-17RA 30 nM, read-out: IL17AA FRET/ IL17Rawt IC50
[4] = NHDF cells, IL-17AA 30 pM plus TNF-α 6 pM, read-out: IL17AA + TNF IC50 IL-6
[5] = TR-FRET, 5 nM IL-17A, 30 nM IL-17RA, read-out: IL17AA FRET/ IL17Rawt IC50
[6] = NHDF cells, IL-17AA 30 pM + TNF-α 6 pM, read-out: IL17AA + TNF IC50 IL-6
[7] = IL17AA FRET/ IL17Rawt IC50, TR-FRET, biotinylated human IL-17A 5 nM, AF647-labeled human IL-17RA 30 nM
[8] = IL17AA + TNF IC50 IL-6, NHDF cells, IL-17AA 30 pM plus TNF-α 6 pM

Sequence of biotinylated human IL-17A / AF647-labeled human IL-17RA (Q16552 24-155): as above

`Cc1c[n+]([O-])cc(C)c1-c1ccc(NC(=O)[C@@H](NC(=O)c2ccc3n2CCN(C)C3)C2CCCCCC2)cc1` [Example 117, (S)-4-(4-(2-cycloheptyl-2-(2-methyl-1,2,3,4-tetrahydropyrrolo[1,2-a]pyrazine-6-carboxamido)acetamido)phenyl)-3,5-dimethylpyridine 1-oxide] showed an IC50 [1, 3] of 161 nM and an IC50 [2, 4] of 121 nM.
`Cn1nccc1C(=O)N[C@H](C(=O)Nc1ccc(-c2c[n+]([O-])ccc2Cl)cc1)C1CCCCC1` [Example 112, (S)-4-chloro-3-(4-(2-cyclohexyl-2-(1-methyl-1H-pyrazole-5-carboxamido)acetamido)phenyl)pyridine 1-oxide] was tested, and the IC50 [1, 3] was 1040 nM and the IC50 [2, 4] was 162 nM.
For `Cc1c[n+]([O-])cc(C)c1-c1ccc(NC(=O)[C@@H](NC(=O)c2ccnn2C(C)C)C2CCCCCC2)cc1` [Example 101, (S)-4-(4-(2-cycloheptyl-2-(1-isopropyl-1H-pyrazole-5-carboxamido)acetamido)phenyl)-3,5-dimethylpyridine 1-oxide], the IC50 [1, 3] was 85 nM and the IC50 [2, 4] was 22 nM.
`Cc1cc[n+]([O-])c(C)c1-c1ccc(NC(=O)[C@@H](NC(=O)c2ccnn2C)C2CCCCC2)cc1` [Example 39, (S)-3-(4-(2-cyclohexyl-2-(1-methyl-1H-pyrazole-5-carboxamido)acetamido)phenyl)-2,4-dimethylpyridine 1-oxide] showed an IC50 [1, 3] of 191 nM and an IC50 [2, 4] of 20 nM.
In the case of `Cc1cc[n+]([O-])c(C)c1-c1ccc(NC(=O)[C@@H](NC(=O)c2ccnn2C)C2CCC(F)(F)C2)cc1` (stereo partly drawn) [Example 87, 3-(4-((2S)-2-(3,3-difluorocyclopentyl)-2-(1-methyl-1H-pyrazole-5-carboxamido)acetamido)phenyl)-2,4-dimethylpyridine 1-oxide], the IC50 [1, 3] is reported as 489 nM and the IC50 [2, 4] is reported as 504 nM.
Work on `Cc1cc[n+]([O-])c(C)c1-c1ccc(NC(=O)[C@H](Cc2ccccc2Cl)NC(=O)c2ccc3n2CCNC3)cc1` [Example 190, (S)-3-(4-(3-(2-chlorophenyl)-2-(1,2,3,4-tetrahydropyrrolo[1,2-a]pyrazine-6-carboxamido)propanamido)phenyl)-2,4-dimethylpyridine 1-oxide] yielded an IC50 [1, 5] of 123 nM and an IC50 [2, 6] of 278 nM.
`Cc1c[n+]([O-])cc(C)c1-c1ccc(NC(=O)[C@@H](NC(=O)c2ccnn2C)[C@H]2CCc3ccccc3C2)cc1` [Example 103, 3,5-dimethyl-4-(4-((S)-2-(1-methyl-1H-pyrazole-5-carboxamido)-2-((S)-1,2,3,4-tetrahydronaphthalen-2-yl)acetamido)phenyl)pyridine 1-oxide] gave an IC50 [1, 3] of 72 nM and an IC50 [2, 4] of 45 nM.
For `Cc1c(-c2ccc(NC(=O)[C@@H](NC(=O)c3ccnn3C(C)C)C3CCCCCC3)cc2)c(Cl)cc[n+]1[O-]` [Example 48, (S)-4-chloro-3-(4-(2-cycloheptyl-2-(1-isopropyl-1H-pyrazole-5-carboxamido)acetamido)phenyl)-2-methylpyridine 1-oxide], the IC50 [1, 3] was 12 nM and the IC50 [2, 4] was 1 nM.
With `Cc1cc[n+]([O-])c(C)c1-c1ccc(NC(=O)C(NC(=O)c2ccnn2C)C2CCC(C(F)(F)F)CC2)cc1F` [Example 91, 3-(2-fluoro-4-((S)-2-(1-methyl-1H-pyrazole-5-carboxamido)-2-((1r,4S)-4-(trifluoromethyl)cyclohexyl)acetamido)phenyl)-2,4-dimethylpyridine 1-oxide] the IC50 [1, 7] was 134 nM and the IC50 [2, 8] was 39 nM.
In the case of `Cc1c(-c2ccc(NC(=O)[C@@H](NC(=O)c3ccc4n3CCNC4)C3CCCCC3)cc2)c(Cl)cc[n+]1[O-]` [Example 206, (S)-4-chloro-3-(4-(2-cyclohexyl-2-(1,2,3,4-tetrahydropyrrolo[1,2-a]pyrazine-6-carboxamido)acetamido)phenyl)-2-methylpyridine 1-oxide], the IC50 [1, 5] is reported as 296 nM and the IC50 [2, 6] is reported as 63 nM.
With `Cc1cc[n+]([O-])c(C)c1-c1ccc(NC(=O)[C@@H](NC(=O)c2ccnn2C)C2CCC(F)(F)CC2)cc1` [Example 32, (S)-3-(4-(2-(4,4-difluorocyclohexyl)-2-(1-methyl-1H-pyrazole-5-carboxamido)acetamido)phenyl)-2,4-dimethylpyridine 1-oxide] the IC50 [1, 3] was 286 nM and the IC50 [2, 4] was 50 nM.
In the case of `Cc1cc[n+]([O-])c(C)c1-c1ccc(NC(=O)[C@@H](NC(=O)c2ccoc2C)C2CCCCC2)cc1` [Example 53, (S)-3-(4-(2-cyclohexyl-2-(2-methylfuran-3-carboxamido)acetamido)phenyl)-2,4-dimethylpyridine 1-oxide], the IC50 [1, 3] is reported as 16 nM and the IC50 [2, 4] is reported as 86 nM.
`CCn1nccc1C(=O)N[C@H](C(=O)Nc1ccc(-c2c(C(F)(F)F)cc[n+]([O-])c2C)cc1)C1CCCC1` [Example 21, (S)-3-(4-(2-cyclopentyl-2-(1-ethyl-1H-pyrazole-5-carboxamido)acetamido)phenyl)-2-methyl-4-(trifluoromethyl)pyridine 1-oxide] was tested, and the IC50 [1, 3] was 39 nM and the IC50 [2, 4] was 31 nM.
Work on `Cc1ccnc(C)c1-c1ccc(NC(=O)[C@@H](NC(=O)c2ccnn2C)[C@H]2CCCc3ccccc32)cc1` [compound 136, N—((S)-2-((4-(2,4-dimethylpyridin-3-yl)phenyl)amino)-2-oxo-1-((S)-1,2,3,4-tetrahydronaphthalen-1-yl)ethyl)-1-methyl-1H-pyrazole-5-carboxamide, reference compound] yielded an IC50 ([1]; TR-FRET, 5 nM IL-17A, 30 nM IL-17RA, reference examples (pyridines), read-out: IL17AA FRET/ IL17RAwt IC50) of 117 nM and an IC50 ([2]; NHDF cells, IL-17AA 30 pM + TNF-α 6 pM, reference examples (pyridines), read-out: IL 17AA + TNF IC50 IL-6) of 50 nM.
Work on `Cc1cc[n+]([O-])c(C)c1-c1ccc(NC(=O)[C@@H](NC(=O)c2ccc3n2CCN(C)C3)C2CCCCC2)cc1` [Example 127, (S)-3-(4-(2-cyclohexyl-2-(2-methyl-1,2,3,4-tetrahydropyrrolo[1,2-a]pyrazine-6-carboxamido)acetamido)phenyl)-2,4-dimethylpyridine 1-oxide] yielded an IC50 [1, 3] of 236 nM and an IC50 [2, 4] of 12 nM.
Molecule `Cc1c(-c2ccc(NC(=O)C(NC(=O)c3ccc4n3CCNC4)C3CCCc4ccccc43)cc2F)c(Cl)cc[n+]1[O-]` [Example 186, 4-chloro-3-(2-fluoro-4-((S)-2-((S)-1,2,3,4-tetrahydronaphtha]en-1-yl)-2-(1,2,3,4-tetrahydropyrrolo[1,2-a]pyrazine-6-carboxamido)acetamido)phenyl)-2-methylpyridine 1-oxide] has an IC50 [1, 5] of 81.5 nM and an IC50 [2, 6] of 34 nM.
With `Cc1cc[n+]([O-])c(C)c1-c1ccc(NC(=O)[C@@H](NC(=O)c2ccnn2C)C(c2ccccc2)c2ccccc2)cc1` [Example 193, (S)-2,4-dimethyl-3-(4-(2-(1-methyl-1H-pyrazole-5-carboxamido)-3,3-diphenylpropanamido)phenyl)pyridine 1-oxide] the IC50 [1, 5] was 97.3 nM and the IC50 [2, 6] was 47 nM.
With `Cc1c(-c2ccc(NC(=O)[C@@H](NC(=O)c3ccnn3C)C3CCCCC3)cc2)cc(CO)c[n+]1[O-]` [Example 115, (S)-3-(4-(2-cyclohexyl-2-(1-methyl-1H-pyrazole-5-carboxamido)acetamido)phenyl)-5-(hydroxymethyl)-2-methylpyridine 1-oxide] the IC50 [1, 3] was 1380 nM and the IC50 [2, 4] was 201 nM.
`Cc1c(-c2ccc(NC(=O)[C@@H](NC(=O)c3ccnn3C)C3CCCCC3)cc2)c(Cl)cc[n+]1[O-]` [Example 45, (S)-4-chloro-3-(4-(2-cyclohexyl-2-(1-methyl-1H-pyrazole-5-carboxamido)acetamid)phenyl)-2-methylpyridine 1-oxide] was tested, and the IC50 [1, 7] was 26 nM and the IC50 [2, 8] was 26 nM.
Molecule `Cc1cc[n+]([O-])c(C)c1-c1ccc(NC(=O)[C@@H](NC(=O)c2ccnn2C2CC2)C2CCCCC2)cc1` [Example 94, (S)-3-(4-(2-cyclohexyl-2-(1-cyclopropyl-1H-pyrazole-5-carboxamido)acetamido)phenyl)-2,4-dimethylpyridine 1-oxide] has an IC50 [1, 3] of 128 nM and an IC50 [2, 4] of 47 nM.
Molecule `Cc1c(-c2ccc(NC(=O)[C@@H](NC(=O)c3ccc4n3CCN(C)C4)C3CCCCCC3)cc2F)c(Cl)cc[n+]1[O-]` [Example 122, 4-chloro-3-(4-((S)-2-cycloheptyl-2-(2-methyl-1,2,3,4-tetrahydropyrrolo[1,2-a]pyrazine-6-carboxamido)acetamido)-2-fluorophenyl)-2-methylpyridine 1-oxide] has an IC50 [1, 3] of 128 nM and an IC50 [2, 4] of 9 nM.
In the case of `Cn1nccc1C(=O)N[C@H](C(=O)Nc1ccc(-c2c[n+]([O-])ccc2Cl)c(F)c1)C1CCCCC1` [Example 93, (S)-4-chloro-3-(4-(2-cyclohexyl-2-(1-methyl-1H-pyrazole-5-carboxamido)acetamido)-2-fluorophenyl)pyridine 1-oxide], the IC50 [1, 3] is reported as 601 nM and the IC50 [2, 4] is reported as 58 nM.
Molecule `Cc1cc[n+]([O-])c(C)c1-c1ccc(NC(=O)[C@@H](NC(=O)c2ccnn2C)C2CCCC2)cc1` [Example 36, (S)-3-(4-(2-cyclopentyl-2-(1-methyl-1H-pyrazole-5-carboxamido)acetamido)phenyl)-2,4-dimethylpyridine 1-oxide] has an IC50 [1, 3] of 1410 nM and an IC50 [2, 4] of 38 nM.
In the case of `Cc1cc[n+]([O-])c(C)c1-c1ccc(NC(=O)[C@@H](NC(=O)c2ccnn2C(C)C)C2CCCCC2)cc1F` [Example 96, 3-(4-((S)-2-cyclohexyl-2-(1-isopropyl-1H-pyrazole-5-carboxamido)acetamido)-2-fluorophenyl)-2,4-dimethylpyridine 1-oxide], the IC50 [1, 3] is reported as 70 nM and the IC50 [2, 4] is reported as 7 nM.
